# In patent publication US20160046597A1, “RORC2 INHIBITORS AND METHODS OF USE THEREOF” (PFIZER INC., priority 2013, published 2016):
# Biological target: T1, RORC2 ligand binding domain (6-His-RORC2 LBD) (Homo sapiens, UniProt P51449)
# T1 construct: made in house; host or cells: E. coli
# T1 sequence (P51449 269-508 limits assumed): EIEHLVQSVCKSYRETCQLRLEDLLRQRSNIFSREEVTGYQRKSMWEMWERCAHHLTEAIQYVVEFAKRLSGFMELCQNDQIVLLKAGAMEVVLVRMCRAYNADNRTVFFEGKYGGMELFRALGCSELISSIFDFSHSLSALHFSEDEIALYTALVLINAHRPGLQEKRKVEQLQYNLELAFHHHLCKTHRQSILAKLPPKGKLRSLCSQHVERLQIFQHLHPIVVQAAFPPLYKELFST
# Assay: Co-activator recruitment by TR-FRET (RORC2 FRET)
# Type: biochemical
# Settings: 6.3 nM RORC2 LBD, 200 nM SRC1-2 coactivator peptide, 3 hours room temperature
# Description: The activity of compound of the invention can be determined by a co-activator recruitment by TR-FRET (time-resolved fluorescence resonance energy transfer) assay. […] Due to the long lasting fluorescence emission of Europium, the non-specific, short-lived fluorescence is time-resolved (TR) from the fluorescence of interest. Inhibitors of the interaction of receptor and coactivator peptide are detected by a decrease in TR-FRET signal.
# Specifically, in one embodiment the aforementioned assay was performed as outlined below. The assay was carried out in black polystyrene, 384-well plates in a total assay volume of 50.5 μL. The assay buffer contained 50 mM TRIS-HCL pH 7.5, 1 mM NaCl, 2 mM MgCl2, 0.5 mg/mL bovine serum albumin, and 5 mM dithiothreitol.
row,IC50,Structure (SMILES)
1,19.8 nM,"Cn1cc(C2CCN(C(=O)[C@H]3CCC[C@H]3O)CC2)c2cc(NC(=O)c3cc(C#N)ccn3)ccc21 (relative stereo) [Example 13, 4-cyano-N-[3-(1-{[(1S*,2R*)-2-hydroxycyclopentyl]carbonyl}piperidin-4-yl)-1-methyl-1 2-carboxamide]"
2,17.9 nM,"CC(C)CC(=O)N1CCC(c2cn(C)c3ccc(NC(=O)c4cccc(C#N)c4)cc23)CC1 [Example 2, 3-cyano-N-(1-methyl-3-(1-(3-methylbutanoyl)piperidin-4-yl)-1H-indol-5-yl)benzamide]"
3,387 nM,"CC[C@H](C)[C@H](O)C(=O)N1CCC(c2cn(C)c3ccc(NC(=O)c4cccc(C#N)c4)cc23)CC1 [Example 3, 3-cyano-N-(3-(1-((2S,3S)-2-hydroxy-3-methylpentanoyl)piperidin-4-yl)-1-methyl-1H-indol-5-yl)benzamide]"
4,590 nM,"CC(C)C[C@H](O)C(=O)N1CCC(c2cn(C)c3ccc(NC(=O)c4cccc(C#N)c4)cc23)CC1 [Example 4, 3-cyano-N-(3-(1-((2S)-2-hydroxy-4-methylpentanoyl)piperidin-4-yl)-1-methyl-1H-indol-5-yl)benzamide]"
5,106 nM,"Cn1cc(C2CCN(C(=O)[C@H]3CC[C@@H](O)CC3)CC2)c2cc(NC(=O)c3cccc(C#N)c3)ccc21 [Example 5, 3-cyano-N-(3-{1-[(cis-4-hydroxycyclohexyl)carbonyl]piperidin-4-yl}-1-methyl-1H-indol-5-yl)benzamide]"
6,7.3 nM,"Cn1cc(C2CCN(C(=O)C3CCC(F)(F)C3)CC2)c2cc(NC(=O)c3cc(C#N)ccn3)ccc21 (stereo not shown) [Example 8, 4-cyano-N-(3-{1-[(3,3-difluorocyclopentyl)carbonyl]piperidin-4-yl}-1-methyl-1H-indol-5-yl)pyridine-2-carboxamide]"
7,8.7 nM,"Cn1cc(C2CCN(C(=O)C3CC(F)(F)C3)CC2)c2cc(NC(=O)c3cc(C#N)ccn3)ccc21 [Example 9, 4-cyano-N-(3-{1-[(3,3-difluorocyclobutyl)carbonyl]piperidin-4-yl}-1-methyl-1H-indol-5-yl)pyridine-2-carboxamide]"
8,42.9 nM,"Cc1cc(C(=O)N2CCC(c3cn(C)c4ccc(NC(=O)c5cc(C#N)ccn5)cc34)CC2)no1 [Example 10, 4-cyano-N-(1-methyl-3-{1-[(5-methylisoxazol-3-yl)carbonyl]piperidin-4-yl}-1H-indol-5-yl)pyridine-2-carboxamide]"
9,34.6 nM,"Cn1nccc1C(=O)N1CCC(c2cn(C)c3ccc(NC(=O)c4cc(C#N)ccn4)cc23)CC1 [Example 11, 4-cyano-N-(1-methyl-3-{1-[(1-methyl-1H-pyrazol-5-yl)carbonyl]piperidin-4-yl}-1H-indol-5-yl)pyridine-2-carboxamide]"
10,24.3 nM,"Cn1cc(C2CCN(C(=O)CC3CCOCC3)CC2)c2cc(NC(=O)c3cc(C#N)ccn3)ccc21 [Example 12, 4-cyano-N-{1-methyl-3-[1-(tetrahydro-2H-pyran-4-ylacetyl)piperidin-4-yl]-1H-indol-5-yl}pyridine-2-carboxamide]"
11,15.9 nM,"Cn1cc(C2CCN(C(=O)C3CCCOC3)CC2)c2cc(NC(=O)c3cc(C#N)ccn3)ccc21 (stereo not shown) [Example 15, 4-cyano-N-{1-methyl-3-[1-(tetrahydro-2H-pyran-3-ylcarbonyl)piperidin-4-yl]-1H-indol-5-yl}pyridine-2-carboxamide]"
12,132 nM,"CNc1ncccc1C(=O)N1CCC(c2cn(C)c3ccc(NC(=O)c4cc(C#N)ccn4)cc23)CC1 [Example 16, 4-cyano-N-[1-methyl-3-(1-{[2-(methylamino)pyridin-3-yl]carbonyl}piperidin-4-yl)-1H-indol-5-yl]pyridine-2-carboxamide]"
13,26.1 nM,"Cn1cc(C2CCN(C(=O)c3cscn3)CC2)c2cc(NC(=O)c3cc(C#N)ccn3)ccc21 [Example 18, 4-cyano-N-{1-methyl-3-[1-(1,3-thiazol-4-ylcarbonyl)piperidin-4-yl]-1H-indol-5-yl}pyridine-2-carboxamide]"
